Tests used:
[1] = target: T1, Suppressor of tumorigenicity 14 protein (Homo sapiens, UniProt Q9Y5Y6); experiment: Inhibition of matriptase (unknown origin) using MeSO2-D-Cha-Gly-Arg-pNA as substrate
T1 sequence (Q9Y5Y6 whole entry): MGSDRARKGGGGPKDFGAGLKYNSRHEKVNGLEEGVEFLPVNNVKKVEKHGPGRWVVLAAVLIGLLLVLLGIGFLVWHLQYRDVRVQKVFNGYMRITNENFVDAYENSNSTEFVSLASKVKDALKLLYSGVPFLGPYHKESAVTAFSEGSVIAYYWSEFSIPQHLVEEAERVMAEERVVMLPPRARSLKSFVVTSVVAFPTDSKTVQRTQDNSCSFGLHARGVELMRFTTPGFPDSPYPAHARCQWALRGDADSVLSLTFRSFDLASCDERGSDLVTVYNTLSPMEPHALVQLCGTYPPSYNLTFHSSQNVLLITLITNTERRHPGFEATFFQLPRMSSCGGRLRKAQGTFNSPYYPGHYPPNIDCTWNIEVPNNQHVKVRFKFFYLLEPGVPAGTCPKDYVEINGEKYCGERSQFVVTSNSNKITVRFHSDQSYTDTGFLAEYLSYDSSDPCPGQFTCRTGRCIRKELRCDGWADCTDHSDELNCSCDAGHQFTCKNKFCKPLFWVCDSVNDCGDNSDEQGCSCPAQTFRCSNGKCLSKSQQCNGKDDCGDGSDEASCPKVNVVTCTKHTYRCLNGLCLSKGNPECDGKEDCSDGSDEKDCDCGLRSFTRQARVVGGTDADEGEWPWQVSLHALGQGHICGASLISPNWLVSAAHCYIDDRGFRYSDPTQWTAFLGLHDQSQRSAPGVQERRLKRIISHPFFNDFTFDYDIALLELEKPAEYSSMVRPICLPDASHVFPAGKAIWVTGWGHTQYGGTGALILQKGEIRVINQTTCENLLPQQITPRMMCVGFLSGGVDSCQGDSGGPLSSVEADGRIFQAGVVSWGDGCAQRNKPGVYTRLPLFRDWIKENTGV

Coagulation factor X = Coagulation factor X (Homo sapiens, UniProt P00742); experiment: Inhibition of human factor 10a using CH3OCO-D-Cha-Gly-Arg-pNA as substrate
Prothrombin = Prothrombin (Bos taurus, UniProt P00735); experiment: Inhibition of bovine thrombin using MeSO2-D-Cha-Gly-Arg-pNA as substrate
[2] = target: T2, Transmembrane protease serine 6 (Homo sapiens, UniProt Q8IU80); experiment: Inhibition of matriptase-2 (unknown origin) expressed in HEK293 cells using ln-Ala-Arg-a-Arg-para-nitroanilide as substrate by UV-vis spectrophotometry; format: cell-based
T2 sequence (Q8IU80 whole entry): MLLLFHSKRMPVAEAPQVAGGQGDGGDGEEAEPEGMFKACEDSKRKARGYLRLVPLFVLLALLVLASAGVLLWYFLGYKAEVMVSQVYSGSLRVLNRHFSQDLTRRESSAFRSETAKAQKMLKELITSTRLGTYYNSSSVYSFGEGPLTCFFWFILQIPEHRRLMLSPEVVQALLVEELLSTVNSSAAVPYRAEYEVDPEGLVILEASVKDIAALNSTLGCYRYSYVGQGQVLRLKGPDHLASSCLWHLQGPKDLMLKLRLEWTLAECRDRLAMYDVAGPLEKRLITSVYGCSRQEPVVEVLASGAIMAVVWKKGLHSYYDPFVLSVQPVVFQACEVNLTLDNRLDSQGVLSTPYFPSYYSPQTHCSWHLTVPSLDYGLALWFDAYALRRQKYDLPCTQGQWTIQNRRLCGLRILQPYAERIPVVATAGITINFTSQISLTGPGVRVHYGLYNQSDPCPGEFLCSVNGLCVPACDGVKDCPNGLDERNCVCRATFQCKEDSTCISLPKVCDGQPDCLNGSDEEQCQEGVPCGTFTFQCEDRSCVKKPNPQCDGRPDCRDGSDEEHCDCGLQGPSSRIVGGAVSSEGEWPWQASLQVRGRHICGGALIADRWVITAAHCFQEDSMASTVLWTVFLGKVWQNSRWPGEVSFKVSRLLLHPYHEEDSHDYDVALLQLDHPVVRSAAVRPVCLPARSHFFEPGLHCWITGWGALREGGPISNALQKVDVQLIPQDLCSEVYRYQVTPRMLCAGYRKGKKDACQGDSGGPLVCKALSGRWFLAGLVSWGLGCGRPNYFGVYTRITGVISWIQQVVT

[3] = target: Urokinase-type plasminogen activator (Homo sapiens, UniProt P00749); experiment: Inhibition of human uPA using Bzbeta-Ala-Gly-Arg-pNA as substrate
[4] = Inhibition of recombinant human airway trypsin-like protease by fluorescence assay
[5] = Selectivity ratio of Ki for bovine thrombin to Ki for matriptase (unknown origin)

Sequence of Coagulation factor X (P00742 41-179 limits assumed): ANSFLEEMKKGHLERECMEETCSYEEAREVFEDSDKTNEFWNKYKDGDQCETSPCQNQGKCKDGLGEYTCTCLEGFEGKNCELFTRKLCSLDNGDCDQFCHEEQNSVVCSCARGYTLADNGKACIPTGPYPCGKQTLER
Sequence of Coagulation factor X (P00742 235-488 limits assumed): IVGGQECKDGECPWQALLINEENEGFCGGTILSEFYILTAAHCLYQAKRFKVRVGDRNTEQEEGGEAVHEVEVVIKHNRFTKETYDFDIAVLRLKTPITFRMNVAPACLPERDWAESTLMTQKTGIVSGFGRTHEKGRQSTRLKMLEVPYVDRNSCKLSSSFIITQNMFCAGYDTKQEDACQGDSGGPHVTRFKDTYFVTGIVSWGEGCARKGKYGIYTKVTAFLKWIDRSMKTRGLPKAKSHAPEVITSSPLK

SMILES	Ki [1] [nM]	Ki (Coagulation factor X) [nM]	Ki (Prothrombin) [nM]	Ki [2] [nM]	Ki [3] [nM]	Ki [4] [nM]	Ratio Ki [5]
CNC(=O)CCCC1CCN(C(=O)[C@H](Cc2cccc(C(=N)N)c2)NS(=O)(=O)c2cccc(-c3cccc(Cl)c3Cl)c2)CC1	51	260	4	750			
N=C(N)c1cccc(C[C@H](NS(=O)(=O)c2cccc(-c3ccc(Cl)cc3Cl)c2)C(=O)N2CCC(NC(=O)NC3CCCCC3)CC2)c1	5.1	20	630	940	18100	2700	> 500
CNC(=O)NCCC1CCN(C(=O)[C@H](Cc2cccc(C(=N)N)c2)NS(=O)(=O)c2cccc(-c3ccc(OC)cc3OC)c2)CC1	1.8	51	0.8	180	4400	110	
N=C(N)c1cccc(C[C@H](NS(=O)(=O)c2cccc(-c3cccc(Cl)c3Cl)c2)C(=O)N2CCC(CCN)CC2)c1	11		20	210			
CCOc1ccc(-c2cccc(S(=O)(=O)N[C@@H](Cc3cccc(C(=N)N)c3)C(=O)N3CCC(CCCC(=O)NC)CC3)c2)c(Cl)c1	49	180	30	1300			
CNC(=O)NCCC1CCN(C(=O)[C@H](Cc2cccc(C(=N)N)c2)NS(=O)(=O)c2cccc(-c3ccc(Cl)cc3Cl)c2)CC1	0.9	29	0.2	73	3400	170	
N=C(N)c1cccc(C[C@H](NS(=O)(=O)c2cccc(-c3ccc(Cl)cc3Cl)c2)C(=O)N2CCC(CCN)CC2)c1	2	50	20	110			
CCOc1ccc(-c2cccc(S(=O)(=O)N[C@@H](Cc3cccc(C(=N)N)c3)C(=O)N3CCC(CCN)CC3)c2)c(Cl)c1	13	170	400	400			
COc1ccc(-c2cccc(S(=O)(=O)N[C@@H](Cc3cccc(C(=N)N)c3)C(=O)N3CCC(NC(=O)NC4CCCCC4)CC3)c2)c(OC)c1	2.7	11	1230	1420	18500	830	> 500
CNC(=O)CCCC1CCN(C(=O)[C@H](Cc2cccc(C(=N)N)c2)NS(=O)(=O)c2cccc(-c3ccc(OC)cc3OC)c2)CC1	8	60	1	770			
CNC(=O)CCCC1CCN(C(=O)[C@H](Cc2cccc(C(=N)N)c2)NS(=O)(=O)c2cccc(-c3ccc(Cl)cc3Cl)c2)CC1	13	32	1	350			
CNC(=O)CCCC1CCN(C(=O)[C@H](Cc2cccc(C(=N)N)c2)NS(=O)(=O)c2cccc(-c3ccc(Cl)c(Cl)c3)c2)CC1	74	230	3	1600			
N=C(N)c1cccc(C[C@H](NS(=O)(=O)c2cccc(-c3ccc(Cl)c(Cl)c3)c2)C(=O)N2CCC(CCN)CC2)c1	18		30	580			
CNC(=O)CCCC1CCN(C(=O)[C@H](Cc2cccc(C(=N)N)c2)NS(=O)(=O)c2cccc(-c3ccc(F)cc3)c2)CC1	120	550	1	4400			

The remaining lines, values ahead:

Ki [1] [nM]	Ki (Coagulation factor X) [nM]	Ki (Prothrombin) [nM]	Ki [2] [nM]	Ki [3] [nM]	Ki [4] [nM]	Ratio Ki [5]	SMILES
12	4790	130	460				CCNC(=O)NCCC1CCN(C(=O)[C@H](Cc2cccc(C(=N)N)c2)NS(=O)(=O)c2cccc(NC(=O)CCN)c2)CC1
23	6450	470	1800				N=C(N)c1cccc(C[C@H](NS(=O)(=O)c2cccc(NC(=O)CCN)c2)C(=O)N2CCC(CCNC(=O)NC3CCCCC3)CC2)c1
17	5520	230	1300				N=C(N)c1cccc(C[C@H](NS(=O)(=O)c2cccc(NC(=O)CCN)c2)C(=O)N2CCC(CCNC(=O)NCc3ccccc3)CC2)c1
120	1100	2	3000				CNC(=O)CCCC1CCN(C(=O)[C@H](Cc2cccc(C(=N)N)c2)NS(=O)(=O)c2cccc(-c3ccccc3F)c2)CC1
23	810	40	2100				N=C(N)c1cccc(C[C@H](NS(=O)(=O)c2cccc(-c3ccccc3F)c2)C(=O)N2CCC(CCN)CC2)c1
7	7070	40	1200				CNC(=O)NCCC1CCN(C(=O)[C@H](Cc2cccc(C(=N)N)c2)NS(=O)(=O)c2cccc(NC(=O)CCN)c2)CC1
11	2610	440	1900				N=C(N)c1cccc(C[C@H](NS(=O)(=O)c2cccc(NC(=O)CCN)c2)C(=O)N2CCC(CCNC(=O)Nc3ccccc3)CC2)c1
14	13900	140	3300				N=C(N)c1cccc(C[C@H](NS(=O)(=O)c2cccc(NC(=O)CCN)c2)C(=O)N2CCC(CCNC(N)=O)CC2)c1
35	16900	9700	3900				N=C(N)c1cccc(C[C@H](NS(=O)(=O)c2cccc(NC(=O)CCN)c2)C(=O)N2CCC(NC(N)=O)CC2)c1
130	3050	6	10000				CNC(=O)CCCC1CCN(C(=O)[C@H](Cc2cccc(C(=N)N)c2)NS(=O)(=O)c2cccc(-c3cccc(F)c3)c2)CC1
52	3200	40	3200				N=C(N)c1cccc(C[C@H](NS(=O)(=O)c2cccc(-c3cccc(F)c3)c2)C(=O)N2CCC(CCN)CC2)c1
56	14100	10800	1300				CNC(=O)NC1CCN(C(=O)[C@H](Cc2cccc(C(=N)N)c2)NS(=O)(=O)c2cccc(NC(=O)CCN)c2)CC1
14	3410	9250	1300				N=C(N)c1cccc(C[C@H](NS(=O)(=O)c2cccc(NC(=O)CCN)c2)C(=O)N2CCC(NC(=O)Nc3ccccc3)CC2)c1
8	1200	35900	790				N=C(N)c1cccc(C[C@H](NS(=O)(=O)c2cccc(NC(=O)CCN)c2)C(=O)N2CCC(NC(=O)NC3CCCCC3)CC2)c1
26	2450	7840	1100				N=C(N)c1cccc(C[C@H](NS(=O)(=O)c2cccc(NC(=O)CCN)c2)C(=O)N2CCC(NC(=O)NCc3ccccc3)CC2)c1
39	8890	15300	2400				CCNC(=O)NC1CCN(C(=O)[C@H](Cc2cccc(C(=N)N)c2)NS(=O)(=O)c2cccc(NC(=O)CCN)c2)CC1
33	1120	5	3200				N=C(N)c1cccc(C[C@H](NS(=O)(=O)c2cccc(-c3ccc(F)cc3)c2)C(=O)N2CCC(CCN)CC2)c1

From ChEMBL document CHEMBL3217540, “New 3-amidinophenylalanine-derived inhibitors of matriptase” (Medchemcomm, 2012)
